Laboratory results from patent EP0583821A1, “Atriopeptins, guanylate cyclase activators, and phosphodiesterase inhibitors as treatment for glaucoma, hydrocephalus and cerebral edema (cranial fluid volume dysfunction)” (THE GENERAL HOSPITAL CORPORATION, priority 1987, dated 1988).

Biological target: T1, guanylate cyclase (Oryctolagus cuniculus, UniProt G1TXB5)
T1 sequence (G1TXB5 28-1056): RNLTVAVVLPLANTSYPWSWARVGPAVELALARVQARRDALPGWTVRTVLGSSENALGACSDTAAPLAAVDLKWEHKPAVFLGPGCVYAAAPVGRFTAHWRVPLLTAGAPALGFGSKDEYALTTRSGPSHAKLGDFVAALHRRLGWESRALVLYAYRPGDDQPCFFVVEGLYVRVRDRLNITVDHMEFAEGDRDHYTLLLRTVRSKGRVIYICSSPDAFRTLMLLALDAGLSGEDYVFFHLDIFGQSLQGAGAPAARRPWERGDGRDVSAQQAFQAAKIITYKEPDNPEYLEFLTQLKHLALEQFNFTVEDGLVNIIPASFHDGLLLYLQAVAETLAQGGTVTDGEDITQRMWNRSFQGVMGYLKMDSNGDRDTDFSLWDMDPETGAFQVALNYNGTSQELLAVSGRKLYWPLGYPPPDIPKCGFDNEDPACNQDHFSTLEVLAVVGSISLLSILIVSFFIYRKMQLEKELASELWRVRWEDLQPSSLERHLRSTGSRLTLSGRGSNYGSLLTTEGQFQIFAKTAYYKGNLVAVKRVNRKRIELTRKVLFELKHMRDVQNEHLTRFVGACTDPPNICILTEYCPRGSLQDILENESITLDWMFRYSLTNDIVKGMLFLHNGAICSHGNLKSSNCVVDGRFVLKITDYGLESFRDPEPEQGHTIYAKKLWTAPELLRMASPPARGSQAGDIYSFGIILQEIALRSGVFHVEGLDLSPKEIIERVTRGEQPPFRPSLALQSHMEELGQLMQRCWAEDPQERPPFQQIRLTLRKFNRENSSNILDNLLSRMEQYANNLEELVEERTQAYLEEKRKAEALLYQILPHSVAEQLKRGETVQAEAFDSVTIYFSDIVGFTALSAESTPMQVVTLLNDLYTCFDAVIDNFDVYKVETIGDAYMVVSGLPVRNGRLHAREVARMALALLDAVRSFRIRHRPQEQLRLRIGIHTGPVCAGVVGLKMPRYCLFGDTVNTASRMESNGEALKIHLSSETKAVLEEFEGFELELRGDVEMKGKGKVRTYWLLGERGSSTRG
Assay: rANP activation of guanylate cyclase in membrane fractions of whole choroid plexus
Format: biochemical, rabbit
Set-up: tissues were homogenized (10 mg wet weight per milliliter); from tissue; host or cells: rabbit cerebral microvessels, choroid plexus, kidney, ciliary process, pia-arachnoid, cerebellum; 100,000 g P1 pellet
Protocol: The effect of rANP on membrane-bound guanylate cyclase and adenylate cyclase activity in various brain-barrier tissues and tissue fractions from rabbit was compared with its activity in cerebrum and cerebellum. Guanylate cyclase was measured as the rate of cyclic GMP formation by modifications of the technique of Waldman et al., supra, incorporated herein by reference. Briefly, tissues were homogenized (10 mg wet weight per milliliter) in 50 mM tris-HCl, pH 8.0, 1 mM EDTA, 1 mM dithiothreitol, and 250 mM sucrose and centrifuged at 100,000g to obtain a P1 pellet. Reaction tubes contained (in 0.3 ml), 50 mM tris, pH 7.6, 6 mM MnCl₂, 0.5 mM 3-isobutyl, 1-methylxanthine (IBMX), 10 mM theophylline, 3 mM GTP, hormone (in 0.03 ml containing 2.5 mM ascorbic acid and 0.1% bovine serum albumin), and 0.06 ml of P1 fraction (40 to 60 ug of protein). The reaction (4 minutes at 30°C) was started by addition of GTP and terminated by addition of 0.3 ml of 150 mM sodium acetate (pH 4.0) and boiling for 3 minutes. Cyclic GMP formed was subsequently measured by radioimmunoassay as described in example 6, infra. Under these conditions, guanylate cyclase activity was linear with time and tissue concentration. Adenylate cyclase activity in P1 fractions was measured according to the method described by Nathanson, et al., Science; 204:843 (1979); Mol. Pharmacol. 18:199 (1980), see Figure 1C . […] Neurosci. Abstr., 10, 899 (1984); Nathanson, et al., Soc. Neurosci. Abstr., 12, 1257 (1986), incorporated herein by reference, but with a lower concentration (0.025%) of trypsin and a rotating tissue tumbler which allowed cleaner fractionation of epithelial cells from erythrocytes and vascular components.
Adenylate cyclase activity could be stimulated by isoproterenol through β-adrenergic receptors known to be present in this tissue. Values shown are the mean ± range for duplicate enzyme determinations, each assayed for cyclic AMP or cyclic GMP in triplicate. […]

Substance	Vmax for stimulation of basal activity (choroid plexus, SEM, N = 5)	Ka for activation of the enzyme (whole choroid plexus, five separate experiments, SEM, 4 min)	stimulation of guanylate cyclase (choroid plexus)
Ser-Leu-Arg-Arg-atriopeptin III (APIII) [rANP 1-28]	58% ± 16%	9.8 ± 5.1 nM	
rANP 13-28 (DRIGAQSGLGCNSFRY; Atrial natriuretic peptide; UniProt P01161 135-150, looked up, fragment)			almost no stimulation
